From patent US20240299424A1, “USE OF PHYTOCANNABINOIDS FOR TREATING ENDOMETRIAL CANCER AND ENDOMETRIOSIS” (INTEGRATIVE THERAPY DISCOVERY LAB S.R.L., priority 2021, published 2024)

What was measured:
Assay type in all cases: cell-based, human
Ishikawa cells = assay: MTT cell viability assay, Ishikawa type I endometrial cancer cell line; conditions: 72 hours; for cytotoxicity (cell viability, % vs vehicle) in combination: in double with cannabidiol (10, 15 and 20 microM CBD), FIG. 3-4; for cytotoxicity (cell viability, % vs vehicle): phytocannabinoid alone, FIG. 1; for cytotoxicity (cell viability, % vs vehicle) in combination with chemotherapeutic drugs: with paclitaxel (PAC), doxorubicin (DOX) and cisplatin (CIS), FIG. 7-10
Procedure: (§1) Ishikawa is a well differentiated type I cell line, was purchased from Sigma Aldrich (Milan, Italy). Ishikawa cells were grown in EMEM medium (Lonza, Milan, Italy), supplemented with 5% fetal bovine serum (FBS), 2 mM/L of glutamine, 100 IU/ml of penicillin, and […] of streptomycin. Primary EC cells PCEM004A, poorly differentiated mixed type I/II cell line, was grown in RPMI1640, supplemented with 20% FBS, 2 mM/L of glutamine, 100 IU/ml of penicillin, and […] of streptomycin. Immortalized human endometriotic cell line (12Z) was generated by infecting cells, obtained from a person undergoing laparoscopy, with SV40 virus. This cell line was purchased by Applied Biological Materials Inc and was maintained in Prigrow III medium supplemented with 20% no-heat inactivated FBS, 100 IU/ml of penicillin and […] of streptomycin. Human pancreatic ductal adenocarcinoma PANC-1 cell line was purchased by Sigma Aldrich (Milan, Italy) and cultured in DMEM high glucose medium (EuroClone, Milan, Italy) supplemented with 10% FBS, 2 mM L-glutamine, 100 IU/mL penicillin, […] streptomycin and 1 mM sodium pyruvate. The human glioblastoma U251 cell line (grade IV), obtained from European Collection of Cell Cultures (ECACC, Salisbury, UK), was maintained in EMEM supplemented with 10% FBS, 2 mmol/L L-glutamine, 100 IU/mL penicillin and 100 μg streptomicin. Media were changed every 48 hours until cells were 90% confluent. All cell lines were maintained at 37 C with 5% CO2 and 95% humidity.
(§2) EC cell lines, PANC-1, U251, and 12Z (3×10^4 cells/ml) were plated in 96-well plates, in a final volume of 100 microl/well. After 24 hours, treatments or vehicles were added for 72 hours. At least six replicates were used for each treatment. At the indicated time point, cell viability was assessed by adding 0.8 mg/ml of 3-[4,5-dimethylthiazol-2-yl]-2,5 diphenyl tetrazolium bromide (MTT, Sigma-Aldrich) to the media. After 3 hours, the plates were centrifuged, the supernatant was removed, and the pellet was solubilized with 100 microl/well of DMSO. The absorbance of the samples against a background control (medium alone) was measured at 570 nm using an ELISA reader microliter plate (BioTek Instruments, Winooski, VT, United States). IC50 was calculated by PRISM 5.0a software, for single phytocannabinoids.

PCEM004A cells = assay: MTT cell viability assay, primary mixed type PCEM004A endometrial cancer cell line; conditions: 72 hours; for cytotoxicity (cell viability, % vs vehicle): phytocannabinoid alone, FIG. 5; for cytotoxicity (cell viability, % vs vehicle) in combination with chemotherapeutic drugs: with paclitaxel (PAC), doxorubicin (DOX) and cisplatin (CIS), FIG. 7-10
Procedure: as §1, §2

PANC-1 cells = assay: MTT cell viability assay, PANC-1 pancreatic ductal adenocarcinoma cell line; conditions: PANC-1, 72 hours post-treatment, FIG. 11
Procedure: as §1, §2

U251 cells = assay: MTT cell viability assay, U251 glioblastoma cell line; conditions: U251, 72 hours post-treatment, FIG. 13
Procedure: as §1, §2

[1] = test system: 12Z endometriotic cell line; assay: MTT cell viability assay, 12Z endometriotic cell line; conditions: single administration, 72 hours post-treatment, FIG. 15-20
Procedure: as §1, §2

[2] = test system: 12Z endometriotic cell line; assay: Transwell invasion assay, 12Z endometriotic cells; conditions: non-cytotoxic dose, 24 hours, Transwell/Matrigel, major effect order THC>CBG>CBD>CBDV>CBN>CBC, FIG. 22-30
Procedure: as §1
12Z cell invasion was evaluated by Transwell invasion assay using Transwell chambers (BD Biosciences, Franklin Lakes, NJ, USA) characterized by the upper face of the polycarbonate membrane covered with 1 mg/ml Matrigel. A total of 750 μl cell culture medium supplemented with 10% FBS was added in the lower chamber. Serum free culture medium ([…]) containing 2.5×10^4 12Z endometriotic cells was plated into the upper chamber with the appropriate treatment. After 24 hours of incubation, the cells remaining in the upper chamber were removed by cotton swabs. The cells on the lower and inner surface of the membrane were fixed in cold methanol, stained with hoechst and observed using a fluorescence microscope (BX51 fluorescence microscope, Olympus, Milan, Italy). A total of ten fields at ×10 magnification were selected at random to measure the average cell coverage using ImageJ software version 1.45s (National Institutes of Health, Bethesda, MD, USA). The experiments were performed in triplicate at least three times independently.

[3] = test system: endometrial cancer cell lines; assay: MTT cell viability, endometrial cancer cell lines tested (Ishikawa and PCEM004A, stated jointly); conditions: for dose dependence of effect on cell viability: individual phytocannabinoids
Procedure: as §1, §2

IL-33 = assay: RT/PCR TaqMan array, IL-33 gene expression in 12Z cells; conditions: 48 hours, CBG, CBC, CBN 30 microM, CBD, CBDV 10 microM, THC 40 microM
Procedure: (§3) Total RNA from untreated or single treated 12Z cell line with CBD, CBG, CBC, CBN, CBDV and THC was extracted using Rneasy Mini kit (Qiagen, Milan, Italy). One microgram of total RNA from each sample was subjected to reverse transcription in a total volume of 20 μL using the High-Capacity cDNA Archive Kit (Applied Biosystem, Foster City, PA, USA) according to the instructions. cDNAs were analyzed by qRT-PCR performed using an IQ5 Multicolor Real time PCR Detection system. Quantitative real-time gene expression was performed with the TaqMan® Array Plate, containing 15 associated cytokine genes and beta-actin as endogenous control gene, was purchased (Thermo Fisher, Grand Island, NY, USA) and used to evaluate the treatments in modulating 12Z-related genes. Measurement of housekeeping gene (beta-Actin) on the samples was used to normalize mRNA content. The gene expression levels of treated cell lines were expressed as normalized fold compared with vehicle-treated cells.

IL-6 = assay: RT/PCR TaqMan array, IL-6 gene expression in 12Z cells; conditions: 48 hours, CBG, CBC, CBN 30 microM, CBD, CBDV 10 microM, THC 40 microM
Procedure: as §3

CXCL8 = assay: RT/PCR TaqMan array, CXCL8 gene expression in 12Z cells; conditions: 48 hours, CBG, CBC, CBN 30 microM, CBD, CBDV 10 microM, THC 40 microM
Procedure: as §3

IL-1beta = assay: RT/PCR TaqMan array, IL-1beta gene expression in 12Z cells; conditions: 48 hours, CBG, CBC, CBN 30 microM, CBD, CBDV 10 microM, THC 40 microM
Procedure: as §3

Compound | cytotoxicity (cell viability, % vs vehicle) in combination (Ishikawa cells) | cytotoxicity (cell viability, % vs vehicle) (Ishikawa cells) | cytotoxicity (cell viability, % vs vehicle) in combination with chemotherapeutic drugs (Ishikawa cells) | cytotoxicity (cell viability, % vs vehicle) (PCEM004A cells) | cytotoxicity (cell viability, % vs vehicle) in combination with chemotherapeutic drugs (PCEM004A cells) | cytotoxicity (cell viability, % vs vehicle) (PANC-1 cells) | cytotoxicity (cell viability, % vs vehicle) (U251 cells) | cytotoxicity (cell viability, % vs vehicle) [1] | endometriosis cell invasion [2] | dose dependence of effect on cell viability ([3]; endometrial cancer cell lines) | IL-33 gene expression (normalized versus vehicle) (IL-33) | IL-6 gene expression (normalized versus vehicle) (IL-6) | CXCL8 gene expression (normalized versus vehicle) (CXCL8) | IL-1beta gene expression (normalized versus vehicle) (IL-1beta) | efficacy in reducing cell viability (rank among individual phytocannabinoids) ([3]; endometrial cancer cell lines, order: CBN, followed by CBDV, CBG, THC and CBC) | efficacy of phytocannabinoid combinations in reducing cell viability ([3]; endometrial cancer cells, combinations of phytocannabinoids)
CCCCCc1cc(O)c2c(c1)OC(C)(CCC=C(C)C)C=C2 (centres unmarked) [CBC, 2-methyl-2-(4-methylpent-3-enyl)-7-pentylchromen-5-ol] | induced cytotoxicity | induced cytotoxicity | induced cytotoxicity | induced cytotoxicity | induced cytotoxicity | induced cytotoxicity | induced cytotoxicity | induced cytotoxicity | effective in reducing endometriosis cells invasion | dose dependent effect | – | – | – | – | – | –
C=C(C)[C@@H]1CCC(C)=C[C@H]1c1c(O)cc(CCC)cc1O [CBDV, 2-[(1R,6R)-3-methyl-6-prop-1-en-2-ylcyclohex-2-en-1-yl]-5-propylbenzene-1,3-diol] | induced cytotoxicity | induced cytotoxicity | induced cytotoxicity | induced cytotoxicity | induced cytotoxicity | induced cytotoxicity | induced cytotoxicity | induced cytotoxicity | effective in reducing endometriosis cells invasion | dose dependent effect | reduced | reduced | reduced | – | – | –
CCCCCc1cc(O)c(C/C=C(\C)CCC=C(C)C)c(O)c1 [CBG, 2-[(2E)-3,7-dimethylocta-2,6-dienyl]-5-pentylbenzene-1,3-diol] | induced cytotoxicity | induced cytotoxicity | induced cytotoxicity | induced cytotoxicity | induced cytotoxicity | induced cytotoxicity | induced cytotoxicity | induced cytotoxicity | effective in reducing endometriosis cells invasion | dose dependent effect | reduced | – | reduced | reduced | – | –
CCCCCc1cc(O)c2c(c1)OC(C)(C)c1ccc(C)cc1-2 [CBN, 6,6,9-trimethyl-3-pentylbenzo[c]chromen-1-ol] | induced cytotoxicity | induced cytotoxicity | induced cytotoxicity | induced cytotoxicity | induced cytotoxicity | induced cytotoxicity | induced cytotoxicity | induced cytotoxicity | effective in reducing endometriosis cells invasion | – | – | – | reduced | – | highest | amplified the effect of all cannabinoids
CCCCCc1cc(O)c2c(c1)OC(C)(C)[C@@H]1CCC(C)=C[C@@H]21 [THC, (6aR,10aR)-6,6,9-trimethyl-3-pentyl-6a,7,8,10a-tetrahydrobenzo[c]chromen-1-ol, reference compound] | induced cytotoxicity | induced cytotoxicity | induced cytotoxicity | induced cytotoxicity | induced cytotoxicity | induced cytotoxicity | induced cytotoxicity | induced cytotoxicity | effective in reducing endometriosis cells invasion | dose dependent effect | – | reduced | – | – | – | –
